Data as given in article PMC3914206.

Columns and labels:
Format in all cases: binding
panel of 442 kinases [1] = target: T1, panel of 442 kinases (Homo sapiens, UniProt P42336, H1047L); settings: Compound Concentration 10 µM
T1 construct: purchased KINOMEscan
Excerpt: (§1) We assessed the selectivity of members of this scaffold using the KINOMEscan methodology across a near comprehensive panel of 442 kinases [[18,27]].

panel of 442 kinases [2] = target: T2, panel of 442 kinases (Homo sapiens, UniProt P37173); settings: kinase TGFBR2; compound concentration 10 µM
T2 construct: purchased KINOMEscan
Excerpt: as §1

panel of 442 kinases [3] = target: T3, panel of 442 kinases (Homo sapiens, UniProt P36888, D835H); settings: Compound Concentration 10 µM
T3 construct: purchased KINOMEscan
T3 sequence (P36888 27-993 D835H): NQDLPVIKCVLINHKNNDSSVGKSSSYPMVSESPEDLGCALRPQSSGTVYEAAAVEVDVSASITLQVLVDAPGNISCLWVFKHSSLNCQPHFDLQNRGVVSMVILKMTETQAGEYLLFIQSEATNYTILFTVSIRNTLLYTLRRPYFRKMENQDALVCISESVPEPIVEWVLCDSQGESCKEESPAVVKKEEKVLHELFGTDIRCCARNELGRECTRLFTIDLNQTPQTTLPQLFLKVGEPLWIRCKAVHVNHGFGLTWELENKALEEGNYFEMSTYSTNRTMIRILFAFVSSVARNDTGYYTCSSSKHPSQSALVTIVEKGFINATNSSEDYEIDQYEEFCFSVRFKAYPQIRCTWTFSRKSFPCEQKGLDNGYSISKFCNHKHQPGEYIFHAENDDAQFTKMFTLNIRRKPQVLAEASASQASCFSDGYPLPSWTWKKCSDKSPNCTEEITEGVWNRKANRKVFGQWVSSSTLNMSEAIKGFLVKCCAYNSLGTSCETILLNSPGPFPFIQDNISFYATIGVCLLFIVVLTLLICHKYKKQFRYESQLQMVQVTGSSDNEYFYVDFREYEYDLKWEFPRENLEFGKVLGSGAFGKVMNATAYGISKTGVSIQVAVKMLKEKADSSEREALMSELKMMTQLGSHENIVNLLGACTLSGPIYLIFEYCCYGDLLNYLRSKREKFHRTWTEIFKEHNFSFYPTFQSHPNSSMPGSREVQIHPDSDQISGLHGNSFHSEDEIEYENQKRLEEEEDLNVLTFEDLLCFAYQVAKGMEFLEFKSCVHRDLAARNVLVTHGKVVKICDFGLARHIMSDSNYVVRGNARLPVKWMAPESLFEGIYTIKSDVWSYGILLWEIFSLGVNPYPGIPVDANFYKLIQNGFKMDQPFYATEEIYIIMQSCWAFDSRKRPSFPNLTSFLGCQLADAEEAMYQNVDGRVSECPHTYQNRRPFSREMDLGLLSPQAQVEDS
Excerpt: as §1

T2 sequence (P37173 23-567): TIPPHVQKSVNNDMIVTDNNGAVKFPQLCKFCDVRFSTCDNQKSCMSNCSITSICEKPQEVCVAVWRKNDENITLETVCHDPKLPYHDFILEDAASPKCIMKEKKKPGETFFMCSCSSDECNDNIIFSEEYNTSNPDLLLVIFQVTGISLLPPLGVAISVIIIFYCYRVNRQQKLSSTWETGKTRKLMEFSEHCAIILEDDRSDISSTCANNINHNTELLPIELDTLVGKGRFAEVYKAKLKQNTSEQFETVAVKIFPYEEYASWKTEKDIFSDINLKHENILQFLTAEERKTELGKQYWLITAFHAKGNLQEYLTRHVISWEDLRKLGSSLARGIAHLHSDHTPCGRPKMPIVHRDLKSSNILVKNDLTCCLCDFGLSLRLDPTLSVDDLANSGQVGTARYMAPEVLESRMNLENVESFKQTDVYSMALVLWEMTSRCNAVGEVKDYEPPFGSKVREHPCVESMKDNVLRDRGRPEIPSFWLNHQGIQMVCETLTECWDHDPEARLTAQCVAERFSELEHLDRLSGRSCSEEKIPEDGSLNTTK
T1 sequence (P42336 whole entry H1047L): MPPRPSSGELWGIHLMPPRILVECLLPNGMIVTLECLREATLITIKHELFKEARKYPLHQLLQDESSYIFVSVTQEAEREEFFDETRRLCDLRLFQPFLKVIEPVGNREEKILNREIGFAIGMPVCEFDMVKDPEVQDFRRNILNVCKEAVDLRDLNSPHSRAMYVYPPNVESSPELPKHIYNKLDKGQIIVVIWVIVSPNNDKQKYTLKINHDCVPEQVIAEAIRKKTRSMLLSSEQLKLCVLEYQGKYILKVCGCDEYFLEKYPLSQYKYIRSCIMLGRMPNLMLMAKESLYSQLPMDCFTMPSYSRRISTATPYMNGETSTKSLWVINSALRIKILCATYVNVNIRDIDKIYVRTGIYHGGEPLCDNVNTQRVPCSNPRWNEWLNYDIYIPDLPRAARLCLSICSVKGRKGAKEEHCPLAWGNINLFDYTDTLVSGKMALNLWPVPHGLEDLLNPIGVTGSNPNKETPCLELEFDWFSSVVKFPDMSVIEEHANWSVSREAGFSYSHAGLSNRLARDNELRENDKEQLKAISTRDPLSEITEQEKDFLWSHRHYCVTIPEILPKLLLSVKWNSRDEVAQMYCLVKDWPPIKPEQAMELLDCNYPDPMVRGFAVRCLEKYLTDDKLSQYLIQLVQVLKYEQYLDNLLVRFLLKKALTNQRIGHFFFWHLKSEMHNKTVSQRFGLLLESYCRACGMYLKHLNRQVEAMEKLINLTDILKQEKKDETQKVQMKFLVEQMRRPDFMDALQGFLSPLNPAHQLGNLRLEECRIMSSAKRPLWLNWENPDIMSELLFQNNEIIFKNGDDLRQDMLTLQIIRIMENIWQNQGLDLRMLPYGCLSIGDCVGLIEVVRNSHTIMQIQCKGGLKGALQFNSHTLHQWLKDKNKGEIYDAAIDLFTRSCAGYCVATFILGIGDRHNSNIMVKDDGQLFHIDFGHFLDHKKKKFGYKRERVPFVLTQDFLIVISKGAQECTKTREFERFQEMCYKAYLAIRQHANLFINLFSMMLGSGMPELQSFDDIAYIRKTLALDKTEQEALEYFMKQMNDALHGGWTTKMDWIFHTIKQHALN

With `COc1cc(C(=O)N2CCC(N3CCN(C)CC3)CC2)ccc1Nc1ncc2c(n1)N(C1CCCC1)c1ccccc1C(=O)N2C` [Compound 25, 11-cyclopentyl-2-((2-methoxy-4-(4-(4-methylpiperazin-1-yl)piperidine-1-carbonyl)phenyl)amino)-5-methyl-5H-benzo[e]pyrimido[5,4-b][1,4]diazepin-6(11H)-one] the “KINOMEscan: PIK3CA(H1047L)” value (panel of 442 kinases [1]) was 100, the “% Ctrl, TGFBR2” value (panel of 442 kinases [2]) was 100 % Ctrl and the “KINOMEscan: FLT3(D835H)” value (panel of 442 kinases [3]) was 100.
`CCOc1cc(C(=O)N2CCC(N3CCN(C)CC3)CC2)ccc1Nc1ncc2c(n1)N(C1CCCC1)c1ccccc1C(=O)N2C` [Compound 26] was tested, and the “KINOMEscan: PIK3CA(H1047L)” value (panel of 442 kinases [1]) was 90, the “% Ctrl, TGFBR2” value (panel of 442 kinases [2]) was 100 % Ctrl and the “KINOMEscan: FLT3(D835H)” value (panel of 442 kinases [3]) was 100.
With `COc1cc(C(=O)N2CCC(N3CCN(C)CC3)CC2)ccc1Nc1ncc2c(n1)N1CCc3cccc(c31)C(=O)N2C` [Compound 24] the “KINOMEscan: PIK3CA(H1047L)” value (panel of 442 kinases [1]) was 94 and the “% Ctrl, TGFBR2” value (panel of 442 kinases [2]) was 100 % Ctrl.
In the case of `COc1cc(C(=O)N2CCC(N3CCN(C)CC3)CC2)ccc1Nc1ncc2c(n1)N(C)c1ccccc1C(=O)N2C` [15 (LRRK2-IN-1)], the “KINOMEscan: PIK3CA(H1047L)” value (panel of 442 kinases [1]) is reported as 20, the “% Ctrl, TGFBR2” value (panel of 442 kinases [2]) is reported as 100 % Ctrl and the “KINOMEscan: FLT3(D835H)” value (panel of 442 kinases [3]) is reported as 100.
